Broadly, the viability is a per cent measure of how many cells are alive, often set against a control.

Like-named read-outs stand apart in the source and are kept apart here.

In data set [1] the test system is PC-3 tumors. Nature of the data set: Histological analysis of excised tumor (H & E). To be noted: day 60 post treatment. The format is in vivo, mice. The protocol:
Selected tumors from each group were harvested and fixed in 10% neutral buffered formalin. Tumors were paraffin embedded, sectioned, placed on polylysine slides, and stained with Hematoxylin & Eosin (H & E) to visualize morphological changes in the tumors in both the treated and control groups. Images were recorded using a light microscope equipped with camera.

Data set [2] has as its system PC-3 cells. Nature of the data set: MTT cytotoxicity assay, PC-3. The class given is cell-based, human. To be noted: PC-3, 10, 30, 120 minutes treatment, then 72 h. The protocol:
To investigate the cytotoxicity of Ptx-GGbPEG-Apt nanoparticles on human prostate cancer cells, mitochondrial dehydrogenase assay (MTT) was employed. PC-3 or DU-145 cells (5×10^3) were seeded in 96-well plates containing 100 μl of RPMI medium 1640 (American Type Culture Collection), supplemented with 100 units/ml aqueous penicillin G, 100 μg/ml streptomycin, and 10% FBS. Cells were then allowed to adhere overnight prior to treatment. On the day of experiment, cells were washed twice with PBS and then exposed to similar concentrations (25 μg/ml) of Ptx in either the encapsulated or free formulations. The control cells received 1% (v/v) DMSO or drug free GGbPEG nanoparticles (1.0 μg/ml). Cells were incubated with drug formulations for different time points (10, 30, 120 mins) followed by washing with PBS and replacing treatment medium with fresh medium in the plates. Cells were further incubated for 72 h. […] The optical densities (OD) of the resulting solutions were determined at 490 nm using a microplate reader (Packard Instruments, Meriden, Conn.) and cell viability (%) was calculated by comparing the OD of the treatment group relative to that of the untreated control group (100%).
Background: Tetrazolium dyes change colour on reduction, which living cells bring about.

The subject of data set [3] is PC-3 tumors. Kind of data set: In vivo efficacy in athymic nude mice bearing human xenograft prostate cancer tumor. To be noted: single i.v. injection, 60 days. (A xenograft is tissue or cells of one species grown in another, often human tumour cells in immunodeficient mice.)
Experimental: For in vivo efficacy study, athymic nude mice bearing human prostate tumor (−150 mm^3) were divided into five groups of four mice, minimizing, weight and tumor size differences. […] Human xenograft prostate cancer tumors were induced in 6-week old athymic nude mice (NCI Frederick, Md., USA). Mice were injected subcutaneously in the right flank with 2.5×10^6 PC-3 cells suspended in a 1:1 mixture of serum-free media and matrigel (BD Biosciences, Franklin Lakes, N.J., USA). Prior to use in tumor induction, PC-3 cells were cultured in RPMI-1640 medium supplemented with 10% fetal bovine serum, 100 units/ml penicillin G, and 100 mg/ml streptomycin. Tumor targeting studies were carried out after the mice developed ˜150 mm^3 tumors. […] After dosing, the mice were monitored for weight and implanted tumor size daily for sixty days. The length and width of the tumors were measured by digital calipers and tumor volume was calculated by the following formula: (width^2×length)/2 [17]. […]
To evaluate the in vivo efficacy of Ptx-GGbPEG-Apt copolymeric nanoparticles, PC-3 cells were injected subcutaneously in the flanks of athymic nude mice as described above. […] The tumor size and body weight were then monitored for 60 days.
For data set [4] the following is noted: i.v.; cited from earlier work.
Data set [5] has as its system DU-145 cells. Nature of the data set: MTT cytotoxicity assay, DU-145. The class given is cell-based, human. To be noted: then 72 h; for viability at 25 µg/mL: Homo sapiens, DU-145, DU-145, 25 μg/ml Ptx, read-out: cell viability. As for the experimental part:
To investigate the cytotoxicity of Ptx-GGbPEG-Apt nanoparticles on human prostate cancer cells, mitochondrial dehydrogenase assay (MTT) was employed. PC-3 or DU-145 cells (5×10^3) were seeded in 96-well plates containing 100 μl of RPMI medium 1640 (American Type Culture Collection), supplemented with 100 units/ml aqueous penicillin G, 100 μg/ml streptomycin, and 10% FBS. Cells were then allowed to adhere overnight prior to treatment. On the day of experiment, cells were washed twice with PBS and then exposed to similar concentrations (25 μg/ml) of Ptx in either the encapsulated or free formulations. The control cells received 1% (v/v) DMSO or drug free GGbPEG nanoparticles (1.0 μg/ml). Cells were incubated with drug formulations for different time points (10, 30, 120 mins) followed by washing with PBS and replacing treatment medium with fresh medium in the plates. Cells were further incubated for 72 h. At the end of treatment period, medium was removed and replaced with 100 μl of complete culture medium and 10 μl of MTT (5 mg/ml) in each well and the plates were incubated at 37° C. in a humidified, 5% CO2 atmosphere for 3 h. The resulting formazan crystals were solubilized with 100 μl of the stop solution (0.1N HCl in isopropanol). The optical densities (OD) of the resulting solutions were determined at 490 nm using a microplate reader (Packard Instruments, Meriden, Conn.) and cell viability (%) was calculated by comparing the OD of the treatment group relative to that of the untreated control group (100%).

For `CC(=O)O[C@H]1C(=O)[C@@]2(C)[C@H]([C@H](OC(=O)c3ccccc3)[C@]3(O)C[C@H](OC(=O)[C@H](O)[C@@H](NC(=O)c4ccccc4)c4ccccc4)C(C)=C1C3(C)C)[C@]1(OC(C)=O)CO[C@@H]1C[C@@H]2O` [Ptx, Paclitaxel], the “histological examination of tumors by H & E staining” value in data set [1] was “extensively necrotic”. Also, the cytotoxic effect entry in data set [2] is “time-dependent cytotoxicity”; in data set [5] (DU-145, 10, 30, 120 minutes treatment), “time-dependent cytotoxicity”. Moreover, the “efficacy in tumor reduction (comparison of groups)” value in data set [3] is listed as “does not show any significant long-term efficacy”. Besides, the “maximal tolerated dose (MTD)” value in data set [4] is reported as 40 mg/kg. In addition, the figures for the viability at 25 µg/mL in data set [5] (treated 30 minutes) and in data set [5] (treated 120 min) were 50% and 35%, respectively.

These data come from patent publication US8389012B2, “Gellan-gum nanoparticles and methods of making and using the same” (The Corporation of Mercer University, priority 2008, dated 2013).
